Measurements as given in patent publication US11932621B1, “2-[9-(2-hydroxypyridin-3-yl)-1,8-dioxo-1,2,3,4,5-6,7,8,9,10-decahydroacridin-10-yl]-acetate as an antimicrobial compound” (KING FAISAL UNIVERSITY, priority 2023, dated 2024).

Assays:
Type in all cases: cell-based
Conditions in all cases: after 10, 20, 40 and 60 minutes at all dilutions 1:100, 1:200, 1:400, 1:800
Candida albicans = assay: Antimicrobial screening by agar dilution, Candida albicans
Protocol: (§1) The antibacterial properties of the synthesized compound 2-[9-(2-hydroxypyridin-3-yl)-1,8-dioxo-1,2,3,4,5,-6,7,8,9,10-decahydroacridin-10-yl]-acetate were studied by the method of agar dilution. Test solutions of each compound was prepared in concentration of 1% using dimethylformamide as a solvent then they are diluted in physiological solution to obtain the final experimental dilutions 1:100, 1:200, 1:400, 1:800. The effect of these substances are compared with furacillin in a controllable study. The testing microbes used were gram positive bacteria Staphylococcus aureus, gram negative bacteria Pseudomonas aeruginosa and Escherichia coli and Candida albicans fungus. The experiments used for this survey were meat-pentonlu agar (EPA) for cultivation of bacteria and Saburo environment for the fungus. Each experiment used 1 mL of test solution on each plate […]. Two drops of emulsified with microbes feel were added. All experimental samples were taken from the agar after 10, 20, 40, 60 minutes in the environment on the basis of Patrk planted. The bacteria were cultivated at a temperature of 37° C. for 1 day and the mushroom was kept in a thermostat for […] at a temperature of 28° C. Then results were checked.

Pseudomonas aeruginosa = assay: Antimicrobial screening by agar dilution, Pseudomonas aeruginosa
Protocol: as §1

Staphylococcus aureus = assay: Antimicrobial screening by agar dilution, Staphylococcus aureus
Protocol: as §1

Escherichia coli = assay: Antimicrobial screening by agar dilution, Escherichia coli
Protocol: as §1

Measured: inhibition activity

CCOC(=O)CN1C2=C(C(=O)CCC2)C(c2cccnc2O)C2=C1CCCC2=O [2-[9-(2-hydroxypyridin-3-yl)-1,8-dioxo-1,2,3,4,5,-6,7,8,9,10-decahydroacridin-10-yl]-acetate]
highest inhibition activity: all assays above
